The values that follow come from patent publication US11345659B2, “Pipecolic esters for inhibition of the proteasome” (THE BOARD OF REGENTS OF THE UNIVERSY OF TEXAS SYSTEM, priority 2018, dated 2022).

In one assay the target is T1, 20 S proteasome (Homo sapiens, UniProt P25787+P25789).
T1 construct: purified from erythrocytes; purchased Enzo Life Sciences, Inc. (Farmingdale, N.Y.); host or cells: human erythrocytes
The experiment in a line: T-L peptidase activity of tRpt5-activated 20 S core. Conditions: core activated with tRpt5. In kind it is biochemical.

In assay [1] the target is T2, latent core 20 S proteasome (Homo sapiens, UniProt P25787+P25789).
T2 construct: purified from erythrocytes; purchased Enzo Life Sciences, Inc. (Farmingdale, N.Y.); host or cells: human erythrocytes
The experiment in a line: T-L peptidase activity of latent 20 S core. In kind it is biochemical.

Assay [2] has as its system Human multiple myeloma RPMI 8226 cells. The experiment in a line: Proliferation of RPMI 8226 cells, live cell count by Trypan Blue exclusion. In kind it is cell-based. How it is done:
Human multiple myeloma RPMI 8226 cells were purchased from American Type Culture Collection (ATCC; Manassas, Va.) and cultured according to ATCC specifications. […] The content of live cells was determined by excluding the Trypan Blue-stained cells. The cells were counted with TC20 Automated Cell Counter (Bio-Rad Laboratories, Hercules, Calif.) and EC50 was calculated with Origin Pro 2017 (OriginLab Corporation, Northampton, Mass.). When indicated, the cells were harvested, washed twice in PBS, resuspended in dilution buffer and stored in −80° C. To prepare crude lysates the thawed preparations were vortexed with glass beads and centrifuged for 5 min 5,000×g (4° C.). The supernate was centrifuged for 20 min 14,000×g. The resulting supernate was used as “crude lysate.” SDS-PAGE was carried in 12% acrylamide, Tris-glycine gels from Invitrogen. Chameleon Duo (Li-Cor) and Rainbow RPN800E (GE Healthcare) molecular weight standards were separated on each gel alongside lysates. The proteins were transferred to nitrocellulose membrane in a semi-dry system. The membranes were probed with specific primary antibodies from Life Technologies (S6, PS6) and Li-Cor (COX IV), and then with secondary antibodies from Li-Cor. In each experiment visualization of S6, PS6 and COX IV was performed on the same membrane with Odyssey Infrared Imaging System (Li-Cor).
The effects of compound 3 observed in vitro prompted its influence on the proliferation of cultured cancer cells to be tested, namely the multiple myeloma RPMI 8226 line. […] Such relatively low EC50, as compared to in vitro determined IC50 values for peptidase activities (2-3 μM; FIG. 3A and FIG. 3B) should come to no surprise. […] The in vitro readout of single peptidase activities is a useful and convenient measure of the catalytic prowess of proteasome. However, especially in the case of allosteric regulators, it may not fully reflect the important structural and functional effects.
Referring to FIG. […] The data are averages (±SD) of three-to-five independent experiments. […]

For a further assay, the target named is T3, mTOR (Homo sapiens, UniProt P42345+P62942).
T3 construct: endogenous in cells; host or cells: RPMI 8226 (ATCC)
Description: Western blot of S6 phosphorylation in RPMI 8226 cells. It counts as cell-based. The conditions noted are these: RPMI 8226, 24 hours; rapamycin 2 nM, compound 3 and B1 0.2 μM. How it is done: (§1) Human multiple myeloma RPMI 8226 cells were purchased from American Type Culture Collection (ATCC; Manassas, Va.) and cultured according to ATCC specifications. […] The content of live cells was determined by excluding the Trypan Blue-stained cells. The cells were counted with TC20 Automated Cell Counter (Bio-Rad Laboratories, Hercules, Calif.) and EC50 was calculated with Origin Pro 2017 (OriginLab Corporation, Northampton, Mass.). When indicated, the cells were harvested, washed twice in PBS, resuspended in dilution buffer and stored in −80° C. To prepare crude lysates the thawed preparations were vortexed with glass beads and centrifuged for 5 min 5,000×g (4° C.). The supernate was centrifuged for 20 min 14,000×g. The resulting supernate was used as “crude lysate.” SDS-PAGE was carried in 12% acrylamide, Tris-glycine gels from Invitrogen. Chameleon Duo (Li-Cor) and Rainbow RPN800E (GE Healthcare) molecular weight standards were separated on each gel alongside lysates. The proteins were transferred to nitrocellulose membrane in a semi-dry system. The membranes were probed with specific primary antibodies from Life Technologies (S6, PS6) and Li-Cor (COX IV), and then with secondary antibodies from Li-Cor. In each experiment visualization of S6, PS6 and COX IV was performed on the same membrane with Odyssey Infrared Imaging System (Li-Cor). […]

A further assay deals with T4, FKBP12 (Homo sapiens, UniProt P62942).
T4 construct: endogenous in cells; host or cells: RPMI 8226 (ATCC)
The experiment in a line: Suppression of rapamycin inhibition of S6 phosphorylation by competing for FKBP12. It counts as cell-based. The conditions noted are these: RPMI 8226, 24 hours; FK506 10 μM, compound 3 and B1 0.2 μM, with rapamycin. How it is done:
as §1

Molecules are shown by their SMILES. “Also recorded” adds a separate entry of the source. Bounds are passed on as bounds.

T4 sequence (P62942 whole entry): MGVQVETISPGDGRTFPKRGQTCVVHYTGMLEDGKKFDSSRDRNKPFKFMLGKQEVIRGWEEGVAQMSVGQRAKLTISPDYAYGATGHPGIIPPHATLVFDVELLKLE

Consider `COc1cc(CCCOC(=O)[C@@H]2CCCCN2C(=O)OCc2ccccc2)cc(OC)c1OC` [Compound 3, 1-benzyl 2-(3-(3,4,5-trimethoxyphenyl)propyl) (S)-piperidine-1,2-dicarboxylate], for which the “effect on T-L peptidase” value on 20 S proteasome is given as “not affected”. Further, in assay [1], the IC50 (as a rule, the concentration at which inhibition is half-maximal) is greater than 50000 nM. Besides, the remaining activity at 1 µM in assay [1] (1 μM compound, n=3, read-out: T-L activity, % of the control) came out at 77%. Moreover, the remaining activity at 50 µM in assay [1] (50 μM compound, n=4, read-out: T-L activity, % of the control) turned out to be 64%. Besides, in assay [2] (RPMI 8226, 0.2 μM, 24 hours, read-out: cell proliferation, % of control), the activity at 0.2 µM was in the range of 60 to 65%. In assay [2] (RPMI 8226, 48 hours, read-out: EC50, content of live cells), the EC50 (as a rule, the concentration needed to bring the measured effect to its halfway point) amounted to 550 nM. Besides, the “activity of mTOR (phosphorylation of S6)” value on mTOR is “neither B1 nor compound 3 affected the activity of mTOR; also recorded: did not inhibit the S6 phosphorylation”. The “suppression of rapamycin inhibition of S6 phosphorylation (FKBP12 binding)” value at FKBP12 was “did not mimic the actions of FK506”.
